Article PMC4981864, “Novel pH-Sensitive Cyclic Peptides” (Scientific Reports, 2016)

How the values were obtained:
[1] = Lipid titration, peptide-membrane partition model, Gibbs free energy; format: physicochemical; settings: 5 μM peptide, varying 50 nm POPC liposomes
Method: Samples containing 5 μM of peptides at pH 8 and pH 3, and varying concentrations of lipids of the 50 nm POPC liposomes were prepared. The fluorescence spectra of peptides in all samples were measured at 280 nm excitation at 25 °C. A series of POPC blanks with the same concentrations of lipids were measured with the same instrument settings and were subtracted from the corresponding fluorescence spectra of peptides in the presence of POPC. The areas under the emission spectra were calculated and the values were normalized to the first point (the emission of the peptide in the absence of POPC). The titration data were fitted by the peptide-membrane partition model to calculate the mole-fraction partition coefficient, K
where F0 is the fluorescence intensity at zero concentration of lipids (in our case F0 = 1); ΔF if the fluorescence increase in the result of the titration with lipids; Clipids is the concentration of lipids; W is the molar concentration of water (55.3 M). Nonlinear least squares curve fitting procedure using Levenberg-Marquardt algorithm was implemented in Origin 8.5.0 SR1. The Gibbs free energy (ΔG) was calculated according to the equation: […]
where R is the gas constant and T is the temperature in Kelvin.

[2] = Steady-state tryptophan fluorescence and CD with and without POPC liposomes; format: physicochemical
Method: Large unilamellar vesicles (LUVs) were prepared by extrusion. POPC, 1-palmitoyl-2-oleoyl-sn-glycero-3-phosphocholine (Avanti Polar Lipids), or a mixture of POPC with 0.5% of 18:1 NBD-PE, 1,2-dioleoyl-sn-glycero-3-phosphoethanolamine-N-7-nitro-2-1,3-benzoxadiazol-4-yl ammonium salt (Avanti Polar Lipids) were dissolved in chloroform, desolvated on a rotary evaporator, and dried under high vacuum for several hours. The phospholipid film was then rehydrated in 10 mM phosphate buffer pH 8.0, vortexed until the lipid bilayer was completely dissolved, and repeatedly (15–21 times) extruded through the membranes with 50 nm pore sizes to obtain LUVs.
Freshly prepared peptides and POPC vesicles were mixed to have 5 μM of a peptide and 1.25 mM of lipids in the final solution. Steady-state fluorescence measurements were carried out on a PC1 spectrofluorometer (ISS, Inc.) under temperature control at 25 °C. Tryptophan fluorescence was excited at 280 nm (there is no Phe or Tyr in the peptides) and recorded with the excitation and emission slits set at 1 nm. The polarizers in the excitation and emission paths were set at the “magic” angle (54.7° from the vertical orientation) and vertically (0°), respectively. Steady state CD measurements were carried out in MOS 450 spectropolarimeter (Bio-Logic, Inc.) with the same concentrations of peptide and lipids used in fluorescence measurements.

4T1 mammary tumors = test: Ex vivo fluorescence imaging of tumor and organs after IV Alexa546-peptides; format: in vivo; settings: 24 hours after IV, three mice
Method: The murine 4T1 xenograft model, which closely mimics stage IV of human breast cancer, was used in our study. Small 4T1 tumor (tumor volume <150 mm^3) generates a significant level of lactate and serves as a good model of an aggressive, acidic tumor[35]. All peptides were covalently conjugated with Alexa546-malemide. […] The mean fluorescence of tumor, muscle, kidney, liver and lungs were recorded and analyzed (Fig. 6).
All animal studies were conducted according to the animal protocol AN04-12-011 approved by the Institutional Animal Care and Use Committee at the University of Rhode Island, in compliance with the principles and procedures outlined by NIH for the Care and Use of Animals. 4T1 breast tumors were established by subcutaneous injection of 4T1 cells (8 × 10^5 cells/0.1 mL/flank) in the right flank of adult female BALB/c mice (about 19–22 g weight) obtained from Harlan Laboratories. When tumors reached about 6 mm in diameter single tail vein injections of 100 μl of 40 μM Alexa546-peptides were performed. […] Mean fluorescence intensity of tumor and organs was calculated using Kodak software.

[3] = Dual quenching assay (acrylamide / 10-DN); format: physicochemical; settings: 7 μM peptide, 2.1 mM POPC
Description: To establish localization of the peptides within a lipid bilayer of membrane, dual quenching assay[28] was employed (Fig. 3 and Table S3). Effective quenching of fluorescence by acrylamide would occur only for tryptophan residues exposed to polar parts of the outer or inner leaflets of the bilayer. At the same time, tryptophan residues located in the middle of a membrane would be effectively quenched by 10-DN. The result of the dual quenching assay allows establishing if tryptophan residues were located in the middle of a membrane or close to the polar headgroups of the bilayer. […] Therefore, we also performed Förster resonance energy transfer (FRET) assay[29] (Fig. 4). First, symmetrically-labelled by NBD dye, POPC liposomes were prepared. Then, membrane-impermeable dithionite was used to chemically modify exposed NBD, which led to the quenching of NBD fluorescence. Thus, NBD dyes located at the outer leaflet of the bilayer were deactivated and excess of dithionite was removed by gel filtration. As a result, asymmetrically-labelled liposomes with active NBD at the inner leaflet were obtained. FRET was monitored from tryptophan residues of the peptides to NBD. Energy transfer might occur only when both fluorophores are in proximity to each other (within 5–15 Å). Thus, when tryptophan residues located at the outer leaflet of the bilayer no significant energy transfer to NBD at the inner leaflet would occur (the distance is about 50–60 Å). […] All other peptides were located at the outer leaflet of the bilayer at pH 8. Drop of pH promoted partitioning of all cyclic peptides into bilayer, which highest FRET for the c[E4W5C] at pH 3.
POPC liposomes without and with 10% of the lipids replaced by 10-doxylnonadecane (10-DN) (Avanti Polar Lipids) were prepared in 10 mM citrate-phosphate buffer pH 8.0. Peptides and POPC liposomes were mixed to generate final concentrations of 7 μM peptide and 2.1 mM POPC without and with 10-DN. […] Quencher, acrylamide (Sigma-Aldrich), was added to the samples of POPC liposomes containing no 10-DN, to have final concentration of 235 mM acrylamide. Concentration of peptides in all samples was kept constant. To observe quenching of tryptophan fluorescence by 10-DN or acrylamide, the tryptophan fluorescence was recorded as described above. The appropriate POPC blanks were measured and subtracted from the measured spectra before analysis. The percentage of quenching was calculated.

O=C(O)CC[C@@H]1NC(=O)[C@H](CS)NC(=O)[C@H](Cc2c[nH]c3ccccc23)NC(=O)[C@H](Cc2c[nH]c3ccccc23)NC(=O)[C@H](Cc2c[nH]c3ccccc23)NC(=O)[C@H](Cc2c[nH]c3ccccc23)NC(=O)[C@H](Cc2c[nH]c3ccccc23)NC(=O)[C@H](CCC(=O)O)NC(=O)[C@H](CCC(=O)O)NC(=O)[C@H](CCC(=O)O)NC1=O [c[E4W5C]]
additional free energy released at low pH ([1]; pH 3 versus pH 8, 25 °C): about 0.7 kcal/mol | free energy released on partitioning into the lipid bilayer at pH 8 ([1]; pH 8, 25 °C, partition model): About 7.3 kcal/mol | maximum position of the fluorescence spectrum λmax, Pep, pH8 ([2]; peptide in phosphate buffer pH 8, no liposomes, 5 μM peptide, excitation 280 nm, 25 °C): 350.6±0.2 nm | maximum position of the fluorescence spectrum λmax, Pep-PC, pH3 ([2]; with POPC liposomes pH 3, 5 μM peptide, 1.25 mM lipids, excitation 280 nm, 25 °C): 340.2±0.4 nm | S, normalized area under the spectra, Pep-PC, pH3 ([2]; with POPC liposomes pH 3, normalized on area for peptide at pH 8 in absence of POPC): 2.4±0.5 | maximum position of the fluorescence spectrum λmax, Pep-PC, pH8 ([2]; with POPC liposomes pH 8, 5 μM peptide, 1.25 mM lipids, excitation 280 nm, 25 °C): 342.8±0.4 nm | S, normalized area under the spectra, Pep-PC, pH8 ([2]; with POPC liposomes pH 8, normalized on area for peptide at pH 8 in absence of POPC): 2.4±0.3 | Tumor/Muscle ratio (4T1 mammary tumors): 5.6 | percentage of fluorescence quenching, Pep-PC+AC pH3 ([3]; 235 mM acrylamide, pH 3): 54% | percentage of fluorescence quenching, Pep-PC+AC pH8 ([3]; 235 mM acrylamide, pH 8): 61% | percentage of fluorescence quenching, Pep-PC+10-DN pH3 ([3]; 10% of lipids replaced by 10-DN, pH 3): 52% | percentage of fluorescence quenching, Pep-PC+10-DN pH8 ([3]; 10% of lipids replaced by 10-DN, pH 8): 49%
